Reference: patent US20240174671A1, “New 2,3-Dihydro-1H-pyrrolo[3,2-b]pyridine Derivatives as Sigma Ligands” (ACONDICIONAMIENTO TARRASENSE, priority 2021, published 2024)
Where two headings read alike, the source gives them in different places.

Experiments:
human σ1 receptor = molecular target: T1, human σ1 receptor (Homo sapiens, UniProt Q99720); assay: Human σ1 receptor radioligand assay ([3H](+)-pentazocine); assay type: binding
T1 construct: expressed in transfected cells; host or cells: HEK-293
T1 sequence (Q99720 whole entry): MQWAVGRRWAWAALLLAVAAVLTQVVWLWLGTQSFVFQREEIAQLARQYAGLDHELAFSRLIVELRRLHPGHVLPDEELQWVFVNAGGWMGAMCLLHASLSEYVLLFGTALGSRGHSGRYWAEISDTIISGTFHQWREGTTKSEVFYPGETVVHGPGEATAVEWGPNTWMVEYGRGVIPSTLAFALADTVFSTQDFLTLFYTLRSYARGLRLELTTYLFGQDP
Outline: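 Binding used [3H](+)-pentazocine, 120 min at 37° C, with non-specific binding defined by 10 μM haloperidol. Bound radioligand was collected by filtration, washed with ice-cold 10 mM Tris-HCl pH 7.4 and counted by scintillation.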

human σ2/TMEM97 receptor = molecular target: T2, human σ2/TMEM97 receptor (Homo sapiens, UniProt Q5BJF2); assay: Binding assay to human σ2/TMEM97 receptor ([3H]-DTG); conditions: transfected HEK-293 membranes, 10 nM [3H]-DTG, 25° C., 120 minutes; read-out: Binding σ-[…] (binding to σ2-receptor expressed as Ki)
T2 construct: expressed in transfected cells; host or cells: HEK-293
T2 sequence (Q5BJF2 whole entry): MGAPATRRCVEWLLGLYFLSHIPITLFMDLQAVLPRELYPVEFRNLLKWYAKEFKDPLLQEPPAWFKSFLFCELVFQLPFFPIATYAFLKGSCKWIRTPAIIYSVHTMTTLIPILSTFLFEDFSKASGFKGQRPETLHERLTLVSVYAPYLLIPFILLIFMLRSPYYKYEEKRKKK
Outline: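 Membranes from transfected HEK-293 cells incubated with 10 nM [3H]-DTG in 50 mM Tris-HCl pH 8.0, 120 min at 25 °C; non-specific binding defined with 10 μM haloperidol. Bound radioactivity counted after filtration; compounds tested as % inhibition at 1 or 10 μM or at five concentrations for Ki.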

[1] = transfected HEK-293 membranes, 5 nM [3H](+)-pentazocine, 37° C., 120 minutes, read-out: Binding σ-[…] (binding to σ1-receptor expressed as Ki)

CC1(C)CN(C(=O)N2CCC3(CCN(Cc4ccc(F)c(C#N)c4)CC3)CC2)c2cccnc21 [Example 147, 5-((9-(3,3-dimethyl-2,3-dihydro-1H-pyrrolo[3,2-b]pyridine-1-carbonyl)-3,9-diazaspiro[5.5]undecan-3-yl)methyl)-2-fluorobenzonitrile]
Ki (human σ1 receptor; [1]): < 100 nM | Ki (human σ2/TMEM97 receptor): < 100 nM

CC1(C)CN(C(=O)N2CCC3(CCN(Cc4cc(F)ccc4F)CC3)C2)c2cccnc21 [Example 148, (8-(2,5-difluorobenzyl)-2,8-diazaspiro[4.5]decan-2-yl)(3,3-dimethyl-2,3-dihydro-1H-pyrrolo[3,2-b]pyridin-1-yl)methanone]
Ki (human σ1 receptor; [1]): < 100 nM | Ki (human σ2/TMEM97 receptor): < 100 nM

CC1(C)CN(C(=O)N2CCC3(CCN(Cc4ccc(F)cc4)CC3)C2)c2cccnc21 [Example 149, (3,3-dimethyl-2,3-dihydro-1H-pyrrolo[3,2-b]pyridin-1-yl)(8-(4-fluorobenzyl)-2,8-diazaspiro[4.5]decan-2-yl)methanone]
Ki (human σ1 receptor; [1]): < 100 nM | Ki (human σ2/TMEM97 receptor): < 100 nM

CC1(C)CN(C(=O)N2CCC3(CCN(Cc4c(F)cccc4F)CC3)C2)c2cccnc21 [Example 150, (8-(2,6-difluorobenzyl)-2,8-diazaspiro[4.5]decan-2-yl)(3,3-dimethyl-2,3-dihydro-1H-pyrrolo[3,2-b]pyridin-1-yl)methanone]
Ki (human σ1 receptor; [1]): > 1000 nM | Ki (human σ2/TMEM97 receptor): 100 to 500 nM

CC1(C)CN(C(=O)N2CCC3(CCN(Cc4ccc(C#N)cc4)CC3)C2)c2cccnc21 [Example 151, 4-((2-(3,3-dimethyl-2,3-dihydro-1H-pyrrolo[3,2-b]pyridine-1-carbonyl)-2,8-diazaspiro[4.5]decan-8-yl)methyl)benzonitrile]
Ki (human σ1 receptor; [1]): < 100 nM | Ki (human σ2/TMEM97 receptor): < 100 nM

CC1(C)CN(C(=O)N2CCC3(CCN(Cc4cccc(F)c4)CC3)C2)c2cccnc21 [Example 152, (3,3-dimethyl-2,3-dihydro-1H-pyrrolo[3,2-b]pyridin-1-yl)(8-(3-fluorobenzyl)-2,8-diazaspiro[4.5]decan-2-yl)methanone]
Ki (human σ1 receptor; [1]): < 100 nM | Ki (human σ2/TMEM97 receptor): < 100 nM

CC1(C)CN(C(=O)N2CCC3(CCN(Cc4ncccc4F)CC3)C2)c2cccnc21 [Example 153]
Ki (human σ1 receptor; [1]): > 1000 nM | Ki (human σ2/TMEM97 receptor): 100 to 500 nM

CC1(C)CN(C(=O)N2CCC3(CCN(Cc4ccc(F)cn4)CC3)C2)c2cccnc21 [Example 154, (3,3-dimethyl-2,3-dihydro-1H-pyrrolo[3,2-b]pyridin-1-yl)(8-((5-fluoropyridin-2-yl)methyl)-2,8-diazaspiro[4.5]decan-2-yl)methanone]
Ki (human σ1 receptor; [1]): 100 to 500 nM | Ki (human σ2/TMEM97 receptor): < 100 nM

CC1(C)CN(C(=O)N2CCC3(CCN(Cc4ccc(C(F)(F)F)nc4)CC3)C2)c2cccnc21 [Example 155, (3,3-dimethyl-2,3-dihydro-1H-pyrrolo[3,2-b]pyridin-1-yl)(8-((6-(trifluoromethyl)pyridin-3-yl)methyl)-2,8-diazaspiro[4.5]decan-2-yl)methanone]
Ki (human σ1 receptor; [1]): > 1000 nM | Ki (human σ2/TMEM97 receptor): < 100 nM

CC1(C)CN(C(=O)N2CCC3(CCN(CCC4CCOCC4)CC3)C2)c2cccnc21 [Example 156, (3,3-dimethyl-2,3-dihydro-1H-pyrrolo[3,2-b]pyridin-1-yl)(8-(2-(tetrahydro-2H-pyran-4-yl)ethyl)-2,8-diazaspiro[4.5]decan-2-yl)methanone]
Ki (human σ1 receptor): 100 to 500 nM | Ki (human σ2/TMEM97 receptor): < 100 nM

CC1(C)CN(C(=O)N2CCC3(CCN(Cc4ccc(C#N)cc4F)CC3)C2)c2cccnc21 [Example 157, 4-((2-(3,3-dimethyl-2,3-dihydro-1H-pyrrolo[3,2-b]pyridine-1-carbonyl)-2,8-diazaspiro[4.5]decan-8-yl)methyl)-3-fluorobenzonitrile]
Ki (human σ1 receptor; [1]): 100 to 500 nM | Ki (human σ2/TMEM97 receptor): < 100 nM

CC1(C)CN(C(=O)N2CCC3(CCN(Cc4cc(C#N)c(F)cc4F)CC3)C2)c2cccnc21 [Example 158, 5-((2-(3,3-dimethyl-2,3-dihydro-1H-pyrrolo[3,2-b]pyridine-1-carbonyl)-2,8-diazaspiro[4.5]decan-8-yl)methyl)-2,4-difluorobenzonitrile]
Ki (human σ1 receptor; [1]): < 100 nM | Ki (human σ2/TMEM97 receptor): < 100 nM
